What follows are molecules tested against GCN2 (Homo sapiens (Human), UniProt Q9P2K8) (assay: GCN2 Biochemical Assay (TR-FRET, GFP-eIF2S1 substrate phosphorylation)). Details: read-out: IC50 (GCN2 Inhibitory Activity).
Summary of the method: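 In-house GCN2 (1.6 nM 2× stock) phosphorylates GFP-eIF2S1 (50 nM 2× stock) with ATP (0.2 mM 2× stock) and tRNA, pH 7.5, 70 min at room temperature; 10-point 3.16-fold compound series. TR-FRET detection with Tb-anti-phospho antibody, 2–3 h, Ex 340/Em 490/520 nm; artifact plate spiked with phospho-substrate.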

Chain of GCN2 (Q9P2K8 whole entry): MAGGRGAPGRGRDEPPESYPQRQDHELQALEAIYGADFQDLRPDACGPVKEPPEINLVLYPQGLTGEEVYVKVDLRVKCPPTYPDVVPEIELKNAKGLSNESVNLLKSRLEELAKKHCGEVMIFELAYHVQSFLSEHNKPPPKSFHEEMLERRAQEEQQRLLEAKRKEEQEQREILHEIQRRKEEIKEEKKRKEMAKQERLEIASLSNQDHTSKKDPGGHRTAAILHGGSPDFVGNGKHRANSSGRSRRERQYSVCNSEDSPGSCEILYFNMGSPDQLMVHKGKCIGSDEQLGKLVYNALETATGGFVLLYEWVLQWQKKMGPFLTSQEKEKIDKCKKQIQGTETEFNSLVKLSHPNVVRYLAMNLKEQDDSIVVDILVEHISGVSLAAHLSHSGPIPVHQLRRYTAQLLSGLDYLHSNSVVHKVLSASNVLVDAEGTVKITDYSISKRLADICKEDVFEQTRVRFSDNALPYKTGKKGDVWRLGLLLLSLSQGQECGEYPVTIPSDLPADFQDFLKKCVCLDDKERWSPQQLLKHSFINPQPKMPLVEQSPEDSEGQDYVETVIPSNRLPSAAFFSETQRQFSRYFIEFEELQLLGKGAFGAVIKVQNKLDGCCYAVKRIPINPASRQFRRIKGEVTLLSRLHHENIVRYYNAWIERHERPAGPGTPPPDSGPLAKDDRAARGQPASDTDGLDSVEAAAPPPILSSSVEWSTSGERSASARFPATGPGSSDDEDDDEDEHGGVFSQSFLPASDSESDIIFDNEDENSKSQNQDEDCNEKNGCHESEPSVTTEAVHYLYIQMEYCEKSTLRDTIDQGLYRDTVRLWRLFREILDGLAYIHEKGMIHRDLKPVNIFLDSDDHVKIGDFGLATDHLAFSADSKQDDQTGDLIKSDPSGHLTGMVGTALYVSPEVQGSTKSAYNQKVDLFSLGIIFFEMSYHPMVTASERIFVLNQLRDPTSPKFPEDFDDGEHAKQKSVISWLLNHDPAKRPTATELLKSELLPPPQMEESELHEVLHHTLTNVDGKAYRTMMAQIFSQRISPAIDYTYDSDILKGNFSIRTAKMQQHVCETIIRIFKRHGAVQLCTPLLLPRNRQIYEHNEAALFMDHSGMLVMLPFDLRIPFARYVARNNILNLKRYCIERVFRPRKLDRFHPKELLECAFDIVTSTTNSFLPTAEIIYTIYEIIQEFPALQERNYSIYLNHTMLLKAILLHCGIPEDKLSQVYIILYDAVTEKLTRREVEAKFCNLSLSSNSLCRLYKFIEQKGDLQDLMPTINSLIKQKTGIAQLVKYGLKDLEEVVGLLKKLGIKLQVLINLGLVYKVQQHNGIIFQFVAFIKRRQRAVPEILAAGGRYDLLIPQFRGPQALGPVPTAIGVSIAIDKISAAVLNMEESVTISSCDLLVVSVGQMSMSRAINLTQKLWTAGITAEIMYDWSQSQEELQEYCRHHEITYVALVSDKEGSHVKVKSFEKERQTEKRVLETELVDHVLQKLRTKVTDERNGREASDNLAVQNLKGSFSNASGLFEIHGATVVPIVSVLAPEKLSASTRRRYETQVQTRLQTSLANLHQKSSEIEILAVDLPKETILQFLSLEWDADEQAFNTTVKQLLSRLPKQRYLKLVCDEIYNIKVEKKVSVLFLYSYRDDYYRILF

| SMILES | IC50 |
| --- | --- |
| Cc1ccc(S(=O)(=O)Nc2cccc3c2CN(c2cccc4c(-c5nc(Nc6cc(C)n(C)n6)ncc5C)c[nH]c24)C3=O)cc1 [Example 343, N-(2-(3-(2-((1,5-dimethyl-1H-pyrazol-3-yl)amino)-5-methylpyrimidin-4-yl)-1H-indol-7-yl)-1-oxoisoindolin-4-yl)-4-methylbenzenesulfonamide] | 0.01 to 0.1 µM |
| Cc1cc(S(=O)(=O)Nc2cccc3c2CN(c2cccc4c(-c5nc(Nc6cc(C)n(C)n6)ncc5C)c[nH]c24)C3=O)ccc1F [Example 345, N-(2-(3-(2-((1,5-dimethyl-1H-pyrazol-3-yl)amino)-5-methylpyrimidin-4-yl)-1H-indol-7-yl)-1-oxoisoindolin-4-yl)-4-fluoro-3-methylbenzenesulfonamide] | 0.01 to 0.1 µM |
| Cc1cnc(Nc2cc(C)n(C)n2)nc1-c1c[nH]c2c(N3Cc4cccc(Nc5ccccc5)c4C3=O)cccc12 [Example 346, 2-(3-(2-((1,5-dimethyl-1H-pyrazol-3-yl)amino)-5-methylpyrimidin-4-yl)-1H-indol-7-yl)-7-(phenylamino)isoindolin-1-one] | 0.1 to 1 µM |
| Cc1cnc(Nc2cc(C)n(C)n2)nc1-c1c[nH]c2c(N3Cc4cccc(N5CCOCC5)c4C3=O)cccc12 [Example 347, 2-(3-(2-((1,5-dimethyl-1H-pyrazol-3-yl)amino)-5-methylpyrimidin-4-yl)-1H-indol-7-yl)-7-morpholinoisoindolin-1-one] | 0.01 to 0.1 µM |
| Cc1cnc(Nc2cc(C)n(C)n2)nc1-c1c[nH]c2c(N3Cc4cccc(N5CCN(C)CC5)c4C3=O)cccc12 [Example 348, 2-(3-(2-((1,5-dimethyl-1H-pyrazol-3-yl)amino)-5-methylpyrimidin-4-yl)-1H-indol-7-yl)-7-(4-methylpiperazin-1-yl)isoindolin-1-one] | 0.01 to 0.1 µM |
| Cc1cnc(Nc2cc(C)n(C)n2)nc1-c1c[nH]c2c(N3Cc4cccc(N(C)C)c4C3=O)cccc12 [Example 349, 2-(3-(2-((1,5-dimethyl-1H-pyrazol-3-yl)amino)-5-methylpyrimidin-4-yl)-1H-indol-7-yl)-7-(dimethylamino)isoindolin-1-one] | 0.01 to 0.1 µM |
| Cc1cnc(Nc2cc(C)n(C)n2)nc1-c1c[nH]c2c(N3Cc4cccc(NCc5ccccc5)c4C3=O)cccc12 [Example 350, 7-(benzylamino)-2-(3-(2-((1,5-dimethyl-1H-pyrazol-3-yl)amino)-5-methylpyrimidin-4-yl)-1H-indol-7-yl)isoindolin-1-one] | 0.1 to 1 µM |
| Cc1cnc(Nc2cc(C)n(C)n2)nc1-c1c[nH]c2c(N3Cc4cccc(NCC5CC5)c4C3=O)cccc12 [Example 351, 7-((cyclopropylmethyl)amino)-2-(3-(2-((1,5-dimethyl-1H-pyrazol-3-yl)amino)-5-methylpyrimidin-4-yl)-1H-indol-7-yl)isoindolin-1-one] | 0.1 to 1 µM |
| Cc1cnc(Nc2cc(C)n(C)n2)nc1-c1c[nH]c2c(N3Cc4c(NCC5CC5)cccc4C3=O)cccc12 [Example 353, 4-((cyclopropylmethyl)amino)-2-(3-(2-((1,5-dimethyl-1H-pyrazol-3-yl)amino)-5-methylpyrimidin-4-yl)-1H-indol-7-yl)isoindolin-1-one] | 0.01 to 0.1 µM |
| Cc1cnc(Nc2cc(C)n(C)n2)nc1-c1c[nH]c2c(N3Cc4c(NCc5ccccc5)cccc4C3=O)cccc12 [Example 354, 4-(benzylamino)-2-(3-(2-((1,5-dimethyl-1H-pyrazol-3-yl)amino)-5-methylpyrimidin-4-yl)-1H-indol-7-yl)isoindolin-1-one] | 0.01 to 0.1 µM |
| Cc1cnc(Nc2cc(C)n(C)n2)nc1-c1c[nH]c2c(N3Cc4ccc(C#Cc5ccccc5)cc4C3=O)cccc12 [Example 355] | > 1 µM |
| Cc1cnc(Nc2cc(C)n(C)n2)nc1-c1c[nH]c2c(N3Cc4c(C#Cc5ccccc5)cccc4C3=O)cccc12 [Example 356, 2-(3-(2-((1,5-dimethyl-1H-pyrazol-3-yl)amino)-5-methylpyrimidin-4-yl)-1H-indol-7-yl)-4-(phenylethynyl)isoindolin-1-one] | 0.1 to 1 µM |
| Cc1cnc(Nc2cc(C)n(C)n2)nc1-c1c[nH]c2c(N3Cc4c(C#Cc5ccc(N)cc5)cccc4C3=O)cccc12 [Example 357, 4-((4-aminophenyl)ethynyl)-2-(3-(2-((1,5-dimethyl-1H-pyrazol-3-yl)amino)-5-methylpyrimidin-4-yl)-1H-indol-7-yl)isoindolin-1-one] | 0.01 to 0.1 µM |
| Cc1cnc(Nc2cc(C)n(C)n2)nc1-c1c[nH]c2c(N3Cc4c(/C=C/C(=O)N(C)C)ccc(F)c4C3=O)cccc12 [Example 359, (E)-3-(2-(3-(2-((1,5-dimethyl-1H-pyrazol-3-yl)amino)-5-methylpyrimidin-4-yl)-1H-indol-7-yl)-7-fluoro-1-oxoisoindolin-4-yl)-N,N-dimethylacrylamide] | 0.01 to 0.1 µM |
| CCN(CC)C(=O)/C=C/c1cccc2c1CN(c1cccc3c(-c4nc(Nc5cc(C)n(C)n5)ncc4C)c[nH]c13)C2=O [Example 368, (E)-3-(2-(3-(2-((1,5-dimethyl-1H-pyrazol-3-yl)amino)-5-methylpyrimidin-4-yl)-1H-indol-7-yl)-1-oxoisoindolin-4-yl)-N,N-diethylacrylamide] | < 0.01 µM |
| CCCCN(CCCC)C(=O)/C=C/c1cccc2c1CN(c1cccc3c(-c4nc(Nc5cc(C)n(C)n5)ncc4C)c[nH]c13)C2=O [Example 369, (E)-N,N-dibutyl-3-(2-(3-(2-((1,5-dimethyl-1H-pyrazol-3-yl)amino)-5-methylpyrimidin-4-yl)-1H-indol-7-yl)-1-oxoisoindolin-4-yl)acrylamide] | 0.01 to 0.1 µM |
| Cc1cnc(Nc2cc(C)n(C)n2)nc1-c1c[nH]c2c(N3Cc4c(/C=C/C(=O)NC(C)(C)C)cccc4C3=O)cccc12 [Example 371, (E)-N-(tert-butyl)-3-(2-(3-(2-((1,5-dimethyl-1H-pyrazol-3-yl)amino)-5-methylpyrimidin-4-yl)-1H-indol-7-yl)-1-oxoisoindolin-4-yl)acrylamide] | < 0.01 µM |

The remaining lines, values ahead:

| IC50 | SMILES |
| --- | --- |
| < 0.01 µM | Cc1cnc(Nc2cc(C)n(C)n2)nc1-c1c[nH]c2c(N3Cc4c(NS(=O)(=O)C(C)C)cccc4C3=O)cccc12 [Example 344, N-(2-(3-(2-((1,5-dimethyl-1H-pyrazol-3-yl)amino)-5-methylpyrimidin-4-yl)-1H-indol-7-yl)-1-oxoisoindolin-4-yl)propane-2-sulfonamide] |
| < 0.01 µM | Cc1cnc(Nc2cc(C)n(C)n2)nc1-c1c[nH]c2c(N3Cc4c(cccc4N4CCOCC4)C3=O)cccc12 [Example 352, 2-(3-(2-((1,5-dimethyl-1H-pyrazol-3-yl)amino)-5-methylpyrimidin-4-yl)-1H-indol-7-yl)-4-morpholinoisoindolin-1-one] |
| < 0.01 µM | Cc1cnc(Nc2cc(C)n(C)n2)nc1-c1c[nH]c2c(N3Cc4c(/C=C/C(N)=O)cccc4C3=O)cccc12 [Example 358, (E)-3-(2-(3-(2-((1,5-dimethyl-1H-pyrazol-3-yl)amino)-5-methylpyrimidin-4-yl)-1H-indol-7-yl)-1-oxoisoindolin-4-yl)acrylamide] |
| < 0.01 µM | Cc1cnc(Nc2cc(C)n(C)n2)nc1-c1c[nH]c2c(N3Cc4c(/C=C/C(=O)N(C)C)cccc4C3=O)cccc12 [Example 360, (E)-3-(2-(3-(2-((1,5-dimethyl-1H-pyrazol-3-yl)amino)-5-methylpyrimidin-4-yl)-1H-indol-7-yl)-1-oxoisoindolin-4-yl)-N,N-dimethylacrylamide] |
| < 0.01 µM | C/C(=C\c1cccc2c1CN(c1cccc3c(-c4nc(Nc5cc(C)n(C)n5)ncc4C)c[nH]c13)C2=O)C(N)=O [Example 361, (E)-3-(2-(3-(2-((1,5-dimethyl-1H-pyrazol-3-yl)amino)-5-methylpyrimidin-4-yl)-1H-indol-7-yl)-1-oxoisoindolin-4-yl)-2-methylacrylamide] |
| < 0.01 µM | CC(=O)/C=C/c1cccc2c1CN(c1cccc3c(-c4nc(Nc5cc(C)n(C)n5)ncc4C)c[nH]c13)C2=O [Example 362, (E)-2-(3-(2-((1,5-dimethyl-1H-pyrazol-3-yl)amino)-5-methylpyrimidin-4-yl)-1H-indol-7-yl)-4-(3-oxobut-1-en-1-yl)isoindolin-1-one] |
| < 0.01 µM | CNC(=O)/C=C/c1cccc2c1CN(c1cccc3c(-c4nc(Nc5cc(C)n(C)n5)ncc4C)c[nH]c13)C2=O [Example 363, (E)-3-(2-(3-(2-((1,5-dimethyl-1H-pyrazol-3-yl)amino)-5-methylpyrimidin-4-yl)-1H-indol-7-yl)-1-oxoisoindolin-4-yl)-N-methylacrylamide] |
| < 0.01 µM | CCNC(=O)/C=C/c1cccc2c1CN(c1cccc3c(-c4nc(Nc5cc(C)n(C)n5)ncc4C)c[nH]c13)C2=O [Example 364, (E)-3-(2-(3-(2-((1,5-dimethyl-1H-pyrazol-3-yl)amino)-5-methylpyrimidin-4-yl)-1H-indol-7-yl)-1-oxoisoindolin-4-yl)-N-ethylacrylamide] |
| < 0.01 µM | Cc1cnc(Nc2cc(C)n(C)n2)nc1-c1c[nH]c2c(N3Cc4c(/C=C/C(=O)NC5CC5)cccc4C3=O)cccc12 [Example 365, (E)-N-cyclopropyl-3-(2-(3-(2-((1,5-dimethyl-1H-pyrazol-3-yl)amino)-5-methylpyrimidin-4-yl)-1H-indol-7-yl)-1-oxoisoindolin-4-yl)acrylamide] |
| < 0.01 µM | Cc1cnc(Nc2cc(C)n(C)n2)nc1-c1c[nH]c2c(N3Cc4c(/C=C/C(=O)NN)cccc4C3=O)cccc12 [Example 366, (E)-3-(2-(3-(2-((1,5-dimethyl-1H-pyrazol-3-yl)amino)-5-methylpyrimidin-4-yl)-1H-indol-7-yl)-1-oxoisoindolin-4-yl)acrylohydrazide] |
| < 0.01 µM | Cc1cnc(Nc2cc(C)n(C)n2)nc1-c1c[nH]c2c(N3Cc4c(/C=C/C(=O)O)cccc4C3=O)cccc12 [Example 367, (E)-3-(2-(3-(2-((1,5-dimethyl-1H-pyrazol-3-yl)amino)-5-methylpyrimidin-4-yl)-1H-indol-7-yl)-1-oxoisoindolin-4-yl)acrylic acid] |

Source: patent US20240025884A1 (Dong-A ST Co., Ltd., priority 2022, published 2024)
